Measured values: patent US20030232101A1, “Topical formulations of resorcinols and cannibinoids and methods of use” (Immugen Pharmaceuticals, Inc., priority 2002, published 2003)
Where two headings read alike, the source gives them in different places.

Tests used:
[1] = test system: HIV-1 (96USHIPS7 strain); assay: HIV attachment assay in PBMCs (cell-associated p24); format: cell-based; conditions: time 0 h
Method: ELISA kits were purchased from Coulter Electronics. The assay was performed according to the manufacturer's instructions. Control curves were generated in each assay to accurately quantitate the amount of p24 antigen in each sample. For experiments using cell lysates. Fifty thousand (5×10^4) viable cells were lysed in Coulter ELISA buffer and subjected to 1 round of freeze/thawed to liberate trapped p24 and p24 detected per manufacturers instructions. HIV capsid protein (p24) was quantitated spectrophotometrically at 450 nm using a Molecular Devices Vmax plate reader using a standard curve. Final concentrations were calculated from the optical density values using the Molecular Devices Soft Max software package.
The attachment assay with PBMCs was performed as follows. Briefly, 1×10^6 PHA/IL-2 PBMCs were incubated for 0, 2, 4 and 24 hours with IMG compounds and cannabidiol in polypropylene tubes. A pre-titered amount of HIV-1 (96USHIPS7 strain, obtained from the AIDS Research and Reference Reagent Program ) was added in the presence of compound and incubated for 3 h at 37° C. After incubation the cultures were washed 3 times (400×g, 10 min, 4° C.) with media (1:25,000 dilution of input p24), the cell pellets lysed with p24 lysing buffer (Coulter) and p24 content determined by ELISA.
PBMCs pretreated with compounds for 0, 2, 4, and 24 were incubated with cell-free HIV-1 for 3 h and the excess unbound HIV removed. The assessed the amount of HIV bound to the cell was then assessed by measuring cell-associated p24 content of total cell lysates.

[2] = test system: HIV-1 strain RoJo; assay: PBMC time of addition assay (RT activity in supernatant at 6 days); format: cell-based; conditions: for IC50: read-out: IC50
Description: (§1) Human peripheral blood mononuclear cells (PBMCs) from a minimum of 2 donors, that have been blasted with PHA and IL-2, were counted, viability determined by Trypan Blue dye exclusion and mixed in equal ratios. Pooled donors were used to minimize the variability observed between individual donors which results from quantitative and qualitative differences in HIV infection and overall response to the PHA and IL-2 of primary lymphocyte populations. The cells were resuspended at 1×10^6 cells /mL in RPMI 1640 without phenol red supplemented with 15% Fetal Bovine Serum (heat inactivated), 2 mM L-glutamine, 100 U/mL penicillin, 100 μg/mL streptomycin, 10 μg/mL gentamycin and IL-2 (20 U/mL, R&D Systems, Minneapolis, Minn.). Fifty microliters of cells were then distributed to the inner 60 wells of a 96 well round bottom microtiter culture plate in a standard format developed by the Infectious Disease Research department of Southern Research Institute. Each plate contains cell control wells (cells only), virus control wells (cells plus virus), and experimental wells (drug plus cells plus virus). Alternatively, cells were cultured in T25 cm^2 or T75 cm^2 tissue culture flasks at a starting density of 1×10^6 cells per ml. Serially diluted compounds were added to the microtiter plate or tissue culture flask followed by the appropriate pre-titered strain of HIV-1. For virus replication inhibition experiments the HIV-1 strain RoJo was used. This is a low passage presumable subtype B pediatric isolate with a syncytium inducing (SI) phenotype in MT-2 cells isolated by Southern Research Institute personnel. All samples were assayed in triplicate where possible with an accompanying determination of compound toxicity. The final volume per well in the microtiter plates was 200 μL. The final volume in the tissue culture flask varied depending upon experimental design and flask size. Assays were incubated for 6 days in a humidified atmosphere at 37° C., 5% CO^2, after which supernatants were collected, for analysis of RT activity and cell viability by MTS dye reduction. Culture were also examined microscopically, any abnormalities noted, and in the case of tissue culture flasks cell counts and viability determined by Trypan Blue Dye exclusion.
(§2) Time of addition assays were performed with PBMCs in two ways. For both assays, PBMCs were isolated and cultured under the conditions as described above. Time of addition assays were carried out in either a tissue culture flask format (T-75 cm^2) or in microtiter wells. In both cases due to the lack of plastic adherence and heterogeneity of the PBMC population for susceptibility to infection, it was not possible to use complete removal of virus following a timed adsorption to synchronize the infection and limit the assay to a single round of infection. Therefore, serial washing by partial removal of the media was used to reduce the concentration of virus and compound (if required) in the assay. Compound addition in relationship to antiviral activity was either assessed over a short addition interval immediately before or after virus addition or for up to 72 h post infection. For all assays virus replication was assessed at 6 days of culture by determining RT expression in cell-free supernatants. In the tissue culture flask format cells were counted and Trypan Blue Dye exclusion used to monitor compound cytotoxicity. Cell viability in the 96 well microtiter plate format was determined by MTS dye reduction. AZT was used as a positive control.
Reverse transcriptase activity was measured in cell-free supernatants. Tritiated thymidine triphosphate (NEN) (TTP) was resuspended in distilled H2O at 5 Ci/mL. Poly rA and oligo dT were prepared as a stock solution which was kept at −20° C. The RT reaction buffer was prepared fresh on a daily basis and consists of 125 μL 1.0 M EGTA, 125 μL dH2O, 110 μL 10% SDS, 50 μL 1.0 M Tris (pH 7.4), 50 μL 1.0 M DTT, and 40 μL 1.0 M MgCl2. […]

[3] = test system: IIIB strain of HIV-1; assay: Virus attachment assay, HeLa CD4 LTR β-gal cells (Experimental Example 2); format: cell-based; conditions: virus adsorption interval 1 to 2 h
Method: This assay detects compounds that block virus attachment using HeLa CD4 LTR β-gal cells. HeLa CD4 LTR β-gal cells were cultured with selection antibiotics. Twenty-four h prior to initiation of the assay, the cells were trypsinized, counted and plated in a 0.2 cm well in media without selection antibiotics. At 24 h media is removed and compound in media placed on the cells and incubated for 15 min at 37° C. A known titer of the IIIB strain of HIV-1 was then added to the wells and the incubation continued for 1 to 2 h. At the end of the incubation the wells were washed 2 times with media and the culture continued for 40 to 48 h. At termination of the assay, media is removed and β-galactosidase enzyme expression determined by chemiluminescence per manufacturer's instructions (Tropix Gal-screen, Bedford Mass.). Compound toxicity is monitored on a sister plate by XTT or MTS dye reduction. All determinations are performed in triplicate with serial_Log10 dilution of the test materials.

[4] = test system: peripheral blood mononuclear cells (PBMCs); assay: PBMC cell viability in time of addition assay (MTS / Trypan Blue); format: cell-based, Human; conditions: read-out: TC50 (the source's name)
Description: as §1, §2
At assay termination the assay plates were stained with the soluble tetrazolium-based dye MTS (CellTiter96® Reagent Promega) to determine cell viability and quantify compound toxicity. MTS is metabolized by the mitochondria enzymes of metabolically active cells to a soluble formazan product, allowing the rapid quantitative analysis cell viability and compound cytotoxicity. […] At termination of the assay 20 μL of MTS reagent was added per well and incubated for 4 h at 37° C. […]

`Cc1ccnc2c1NC(=O)c1cccnc1N2C1CC1` [Nevirapine, reference compound] was tested, and the “% Control” value ([1]; 10 μM) was 81.2%, the “pg p24” value ([1]; 10 μM) was 311.7 pg and the “suppression of virus attachment” value ([1]; 10 μM) was 19% suppression. The “suppression of virus attachment” value ([1]; 10 μM, listed as nevaripine) was 19%.
With Dextran Sulfate [reference compound] the “% Control” value ([1]; 20 μg/ml) was 57.6%, the “pg p24” value ([1]; 20 μg/ml) was 221 pg and the “suppression of virus attachment” value ([1]; 20 μg/ml) was 43.4% suppression. The “suppression of virus attachment” value ([1]; 20 μg/ml, listed as dextran sulfate) was 43.4%.
In the case of `Cc1cn([C@H]2C[C@H](N=[N+]=[N-])[C@@H](CO)O2)c(=O)[nH]c1=O` [AZT, reference compound], the enhancement of activity ([2]; 4 h preincubation) is reported as 4.6 fold, the IC50 ([2]; addition prior to infection, pre-treatment 0 h) is reported as 1 nM and the IC50 ([2]; addition prior to infection, pre-treatment 2 h) is reported as 1 nM. It also gave an IC50 ([2]; addition prior to infection, pre-treatment 4 h) of 1 nM, an IC50 ([2]; addition prior to infection, pre-treatment 24 h) of 3 nM and an IC50 ([2]; treatment 6 h post) of 4.6 nM. The IC50 ([2]; treatment at infection) was 3.7 nM, the IC50 ([2]; treatment −4 h pre) was 0.8 nM and the “activity in virus attachment assay” value [3] was “not active”. The CC50 ([4]; treatment 6 h post) was > 4000 nM, the CC50 ([4]; treatment at infection) was > 4000 nM and the CC50 ([4]; treatment −4 h pre) was > 4000 nM.
